Data taken from PubChem BioAssay (NCI).
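GI50: concentration for 50% inhibition of growth. TGI is the concentration that stops growth completely.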

Key:
Assay in all cases: NCI anticancer screen, dose series, 384-well format
[1] = system: SF-295 CNS
[2] = system: HCC-2998 colon
[3] = system: SF-268 CNS
[4] = system: EKVX NSCLC
[5] = system: RPMI-8226 leukemia
[6] = system: KM12 colon
[7] = system: PC-3 prostate
[8] = system: NCI-H322M lung
[9] = system: SNB-19 CNS
[10] = system: UACC-257 melanoma
[11] = system: HCT-15 colon
[12] = system: HT29 colon
[13] = system: OVCAR-4 ovarian
[14] = system: SN12C renal
[15] = system: MCF7 breast
[16] = system: U251 glioblastoma
[17] = system: M14 melanoma
[18] = system: UACC-62 melanoma
[19] = system: A498 renal
[20] = system: SNB-75 CNS
[21] = system: SK-MEL-2 melanoma
[22] = system: OVCAR-3 ovarian
[23] = system: SK-MEL-5 melanoma
[24] = system: BT-549 breast
[25] = system: RXF 393 renal
[26] = system: NCI-H226 lung
[27] = system: SF-539 CNS
[28] = system: NCI-H522 lung
[29] = system: DU-145 prostate
[30] = system: HOP-62 NSCLC
[31] = system: IGROV1 ovarian
[32] = system: T-47D breast
[33] = system: HOP-92 NSCLC
[34] = system: OVCAR-8 ovarian
[35] = system: CAKI-1 renal
[36] = system: SK-MEL-28 melanoma
[37] = system: SR leukemia
[38] = system: MALME-3M melanoma
[39] = system: SW-620 colon
[40] = system: 786-0 renal
[41] = system: TK-10 renal
[42] = system: CCRF-CEM leukemia
[43] = system: NCI-H460 NSCLC
[44] = system: SK-OV-3 ovarian
[45] = system: ACHN renal
[46] = system: MDA-MB-468 breast
[47] = system: OVCAR-5 ovarian
[48] = system: NCI/ADR-RES ovarian
[49] = system: NCI-H23 lung
[50] = system: A549 NSCLC
[51] = system: MOLT-4 leukemia
[52] = system: HL-60(TB) leukemia
[53] = system: MDA-MB-435 melanoma
[54] = system: HS 578T breast
[55] = system: MDA-MB-231 breast
[56] = system: COLO 205 colon

CCc1ccc(/C=C2/SC(=S)NC2=O)cc1
GI50 [1]: 33.7 µM | TGI [1]: > 100 µM | GI50 [2]: 21.6 µM | TGI [2]: 43.6 µM | GI50 [3]: 19.3 µM | TGI [3]: 45.8 µM | GI50 [4]: 20.8 µM | TGI [4]: 49.5 µM | GI50 [5]: 15.6 µM | TGI [5]: 29.1 µM | GI50 [6]: 20.7 µM | TGI [6]: 44.1 µM | GI50 [7]: 23.4 µM | TGI [7]: 49.8 µM | GI50 [8]: 22.5 µM | TGI [8]: 44.8 µM | GI50 [9]: 33.4 µM | TGI [9]: > 100 µM | GI50 [10]: 21.3 µM | TGI [10]: 42.1 µM | GI50 [11]: 18.5 µM | TGI [11]: 44 µM | GI50 [12]: 24.9 µM | TGI [12]: 57.2 µM | GI50 [13]: 13.6 µM | TGI [13]: 46.9 µM | GI50 [14]: 29.1 µM | TGI [14]: 95.8 µM | GI50 [15]: 26.2 µM | TGI [15]: 68 µM | GI50 [16]: 17.3 µM | TGI [16]: 33.1 µM | GI50 [17]: 19.6 µM | TGI [17]: 39.6 µM | GI50 [18]: 31.1 µM | TGI [18]: 83.2 µM | GI50 [19]: 16.7 µM | TGI [19]: 33.1 µM | GI50 [20]: 21.4 µM | TGI [20]: 51.2 µM | GI50 [21]: 20.9 µM | TGI [21]: 37.7 µM | GI50 [22]: 18 µM | TGI [22]: 36.5 µM | GI50 [23]: 18.6 µM | TGI [23]: 33.1 µM | GI50 [24]: 19.7 µM | TGI [24]: 36.1 µM | GI50 [25]: 21.2 µM | TGI [25]: 42.7 µM | GI50 [26]: 16.7 µM | TGI [26]: 36.5 µM | GI50 [27]: 15.9 µM | TGI [27]: 30.8 µM | GI50 [28]: 14.7 µM | TGI [28]: 36.9 µM | GI50 [29]: 27.7 µM | TGI [29]: 85.3 µM | GI50 [30]: 22.1 µM | TGI [30]: 42.9 µM | GI50 [31]: 30.5 µM | TGI [31]: > 100 µM | GI50 [32]: 23.6 µM | TGI [32]: 49.4 µM | GI50 [33]: 18.1 µM | TGI [33]: 37.9 µM | GI50 [34]: 22.8 µM | TGI [34]: 51 µM | GI50 [35]: 19.3 µM | TGI [35]: 47.6 µM | GI50 [36]: 24.7 µM | TGI [36]: 55.2 µM | GI50 [37]: 12.5 µM | TGI [37]: 25.1 µM | GI50 [38]: 15.9 µM | TGI [38]: 33.9 µM | GI50 [39]: 24.5 µM | TGI [39]: 59.6 µM | GI50 [40]: 28.6 µM | TGI [40]: 88 µM | GI50 [41]: 26.3 µM | TGI [41]: 74.1 µM | GI50 [42]: 16.5 µM | TGI [42]: 30.3 µM | GI50 [43]: 17.8 µM | TGI [43]: 33.3 µM | GI50 [44]: 18.5 µM | TGI [44]: 43.2 µM | GI50 [45]: 25 µM | TGI [45]: 60.5 µM | GI50 [46]: 16.3 µM | TGI [46]: 33.1 µM | GI50 [47]: 17.5 µM | TGI [47]: 43.5 µM | GI50 [48]: 21 µM | TGI [48]: 45 µM | GI50 [49]: 15.7 µM | TGI [49]: 34.6 µM | GI50 [50]: 19.8 µM | TGI [50]: 46.2 µM | GI50 [51]: 16.9 µM | TGI [51]: 30.6 µM | GI50 [52]: 20.3 µM | TGI [52]: 34.9 µM | GI50 [53]: 21.2 µM | TGI [53]: 44.9 µM | GI50 [54]: 19.4 µM | TGI [54]: 39.5 µM | GI50 [55]: 20.7 µM | TGI [55]: 49.5 µM | GI50 [56]: 27.1 µM | TGI [56]: 54.1 µM
